Data published in the supplement of paper PMC10307832.

Columns and labels:
Experiment in all cases: relative viability (nuclei count vs DMSO), 5 days (fraction); higher = more cells survive
GSK-J4 + OSI-027 = compound: CCOC(=O)CCNc1cc(N2CCc3ccccc3CC2)nc(-c2ccccn2)n1 [GSK-J4] + COc1cccc2cc(-c3nc([C@H]4CC[C@H](C(=O)O)CC4)n4ncnc(N)c34)[nH]c12 [OSI-027] (partner 0.5 µM)
In short: (§1)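 Medians of duplicate plates are given as relative viability. That measure is the nuclei count in treated wells divided by the count in vehicle wells. Counts were taken on 4× images of lung cancer cell lines in 1536-well plates, 5 days after pin-tool dosing the day after seeding with one drug alone or a fixed anchor-drug dose plus five library-drug doses (not always all listed) in √10 steps.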

AZ3146 + Luminespib = compound: CN1CCC(CC1)OC2=CC(=C(C=C2)NC3=NC=C4C(=N3)N(C(=O)N4C)C5CCCC5)OC [AZ3146] + CCNC(=O)c1noc(-c2cc(C(C)C)c(O)cc2O)c1-c1ccc(CN2CCOCC2)cc1 [Luminespib] (partner 0.01 µM)
In short: as §1

GSK-J4 + Linsitinib = compound: CCOC(=O)CCNc1cc(N2CCc3ccccc3CC2)nc(-c2ccccn2)n1 [GSK-J4] + C[C@]1(O)C[C@@H](c2nc(-c3ccc4ccc(-c5ccccc5)nc4c3)c3c(N)nccn32)C1 [Linsitinib] (partner 1 µM)
In short: as §1

GSK-J4 + Phenformin = compound: CCOC(=O)CCNc1cc(N2CCc3ccccc3CC2)nc(-c2ccccn2)n1 [GSK-J4] + N=C(N)NC(=N)NCCc1ccccc1 [Phenformin] (partner 250 µM)
In short: as §1

Cell Line | relative viability (GSK-J4 + OSI-027; first compound 0.5 µM) | relative viability (GSK-J4 + OSI-027; first compound 1.581 µM) | relative viability (GSK-J4 + OSI-027; first compound 15.81 µM) | relative viability (GSK-J4 + OSI-027; first compound 50 µM) | relative viability (AZ3146 + Luminespib; first compound 0.253 µM) | relative viability (AZ3146 + Luminespib; first compound 0.8 µM) | relative viability (AZ3146 + Luminespib; first compound 2.53 µM) | relative viability (AZ3146 + Luminespib; first compound 8 µM) | relative viability (GSK-J4 + Linsitinib; first compound 0.5 µM) | relative viability (GSK-J4 + Linsitinib; first compound 1.581 µM) | relative viability (GSK-J4 + Linsitinib; first compound 15.81 µM) | relative viability (GSK-J4 + Linsitinib; first compound 50 µM) | relative viability (GSK-J4 + Phenformin; first compound 0.5 µM) | relative viability (GSK-J4 + Phenformin; first compound 1.581 µM) | relative viability (GSK-J4 + Phenformin; first compound 15.81 µM) | relative viability (GSK-J4 + Phenformin; first compound 50 µM) | relative viability (AZ3146 + Luminespib; first compound 0.08 µM) | relative viability (GSK-J4 + OSI-027; first compound 5 µM) | relative viability (GSK-J4 + Linsitinib; first compound 5 µM) | relative viability (GSK-J4 + Phenformin; first compound 5 µM)
BEN | 0.334 | 0.249 | 0.315 | 0.212 | 0.224 | 0.637 | 0.282 | 0.269 | 0.91 | 0.706 | 0.925 | 0.823 | 0.25 | 0.261 | 0.276 | 0.254 | – | – | – | –
COR-L23 | 0.753 | 0.603 | 0.733 | 0.625 | 0.693 | 0.624 | 0.69 | 0.611 | 0.909 | 0.933 | 0.868 | 0.807 | 0.412 | 0.408 | 0.39 | 0.393 | 0.618 | – | – | –
NCI-H2009 | 0.573 | 0.491 | 0.527 | 0.283 | 1.06 | 0.973 | 1.06 | 0.999 | 1.19 | 0.873 | 1.17 | 0.947 | 0.456 | 0.419 | 0.341 | 0.222 | 0.996 | 0.601 | 0.983 | 0.354
NCI-H2023 | 0.409 | – | 0.321 | 0.194 | 0.774 | 0.78 | 0.593 | 0.153 | 0.658 | 0.675 | 0.582 | 0.674 | 0.441 | – | 0.35 | 0.342 | 0.657 | 0.403 | 0.815 | 0.395
NCI-H2405 | 0.682 | 0.703 | 0.521 | 0.556 | 0.704 | 0.967 | 0.756 | 0.914 | 1.03 | 0.919 | 1.07 | 1.1 | 0.442 | 0.386 | 0.335 | 0.366 | 0.923 | – | – | –
HCC-44 | 0.51 | 0.31 | 0.387 | 0.483 | 1.02 | 1.17 | 1.02 | 0.999 | 0.704 | 0.625 | 0.735 | 0.646 | 0.253 | 0.222 | 0.124 | 0.137 | 0.884 | – | 0.709 | 0.134
EPLC-272H | 0.313 | 0.255 | 0.293 | 0.192 | 0.342 | 0.519 | 0.323 | 0.321 | 1.16 | – | 1.02 | 1.11 | 0.347 | 0.24 | 0.3 | 0.154 | – | 0.261 | 1.31 | 0.192
NCI-H322M | 0.556 | 0.506 | 0.504 | 0.49 | 0.847 | 0.715 | 0.924 | 0.787 | 0.858 | 0.929 | 0.828 | 0.825 | 0.788 | 0.553 | 0.729 | 0.545 | 0.88 | 0.637 | 0.955 | 0.806
SK-MES-1 | 0.573 | 0.542 | 0.436 | 0.327 | 0.581 | 0.769 | 0.847 | 0.585 | 0.994 | 0.975 | 0.993 | 0.994 | 0.582 | 0.585 | 0.565 | 0.371 | 0.657 | 0.535 | 0.827 | 0.594
H3255 | 0.616 | 0.545 | 0.529 | 0.531 | 0.801 | 0.841 | 0.911 | 0.866 | 0.902 | 0.952 | 0.84 | 0.707 | 0.331 | 0.381 | 0.312 | 0.365 | 0.841 | 0.627 | 0.838 | 0.36
EKVX | 0.673 | 0.412 | 0.6 | 0.567 | 0.842 | 0.838 | 0.981 | 0.899 | 0.928 | 0.832 | 0.836 | 0.902 | 0.252 | 0.213 | 0.177 | 0.237 | 0.836 | 0.619 | 1.16 | 0.236
NCI-H1993 | 0.536 | 0.485 | 0.563 | 0.527 | 0.92 | 0.911 | 1.06 | 1.02 | 0.694 | 0.752 | 0.779 | 0.785 | 0.476 | 0.545 | 0.548 | 0.456 | 0.86 | 0.646 | 0.814 | 0.555
NCI-H650 | 0.508 | 0.447 | 0.427 | 0.294 | 0.706 | 0.764 | 0.904 | 0.854 | 0.733 | 0.672 | 0.723 | 0.592 | 0.455 | 0.419 | 0.422 | 0.423 | 0.734 | 0.356 | 0.537 | 0.322
NCI-H460 | 0.586 | 0.494 | 0.508 | 0.522 | 0.0347 | 0.0408 | 0.0305 | 0.0293 | 0.821 | 0.584 | 0.691 | 0.581 | 0.515 | 0.365 | 0.472 | 0.398 | 0.0349 | 0.537 | 0.836 | 0.361
NCI-H1437 | 0.899 | 0.761 | 0.882 | 0.648 | 1.15 | 1.11 | 1.15 | 1.07 | 0.928 | 0.993 | 0.881 | 0.222 | 0.319 | 0.263 | 0.371 | 0.25 | 1.12 | 0.806 | 0.988 | 0.308
NCI-H2347 | 0.449 | 0.347 | – | 0.338 | 0.298 | 0.551 | 0.53 | 0.644 | 0.829 | 0.78 | 0.961 | 0.651 | 0.324 | 0.384 | – | 0.499 | 0.375 | 0.617 | 0.885 | 0.507
LCLC-103H | 0.438 | 0.325 | 0.432 | 0.326 | 0.917 | 0.966 | 1.01 | 1.02 | 0.914 | 0.978 | 1.06 | 1.04 | 0.32 | 0.296 | 0.331 | 0.33 | 1.01 | 0.379 | 1.12 | 0.224
